Test results published in patent publication US20260374766A1, “METHODS FOR TREATING CANCER” (Antares Therapeutics, Inc., priority 2022, published 2026).
pIC50, pKd: −log10 of the molar value. Where two headings read alike, the source gives them in different places.

How the values were obtained:
H1299 p53 Y220C = assay: Cell Proliferation Assay (CellTiter-Glo, CTG), H1299 p53 Y220C (NClH1299-inducible p53 Y220C); format: cell-based; settings: Homo sapiens, NCI-H1299, 120 h, NClH1299-inducible p53 Y220C cells, 5 days
Procedure, shortened: (§1)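 NClH1299 lines stably transduced with Tet-inducible p53 Y220C or R273H, plus NUGC3, were treated with compound for 5 days at 250-500 cells/well. IC50 derived from CellTiter-Glo luminescent signal after 10 min room-temperature incubation.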

[1] = molecular target: T1, p53 Y220C mutant protein (amino acid residues 94-293) (Homo sapiens, UniProt P04637, Y220C); assay: Thermal Shift Assay (TSA), dTM; format: binding; settings: read-out: TSA P53 Y220C dTM; for ΔTm at 10 µM: 10 uM compound
T1 construct: p53 Y220C mutant protein (amino acid residues 94-293)
Procedure, shortened: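 TM is derived by fitting Sypro Orange melt curves (30 °C to 50 °C, 0.03 °C/second) to a Boltzmann two-state model. Beforehand, 5 μM p53 Y220C (94-293) sits with 10 μM or 100 μM compound for 3 hours at 20 °C in HEPES pH7.4 buffer containing 100 mM NaCl and 1% DMSO.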

[2] = molecular target: T1, p53 Y220C mutant protein (amino acid residues 94-293); assay: Surface Plasmon Resonance (SPR) assay, Kd_kinetic; format: binding; settings: read-out: SPR P53 Y220C KD kinetic
Procedure, shortened: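 Biacore 8K SPR; 16 or 20 °C; Tris 50 mM pH 7.5, NaCl 100 mM, DTT 1 mM, Brij35 0.01%, Tween-20 0.05%, DMSO 1%. Kd_kinetic by 1:1 fit.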

NUGC3 p53 Y220C = assay: Cell Proliferation Assay (CellTiter-Glo, CTG), NUGC3 p53 Y220C; format: cell-based; settings: Homo sapiens, NUGC-3, 120 h, NUGC3 cells, 5 days
Procedure, shortened: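 Tet-One inducible p53 Y220C or R273H constructs were stably introduced into NCI-H1299 by lentiviral transduction; NUGC3 was used as is. Cells (250-500 per well) were exposed to compound for 5 days, then CellTiter-Glo was added for 10 min at room temperature and IC50 was calculated from luminescence.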

p53 Y220C = p53 Y220C (Homo sapiens, UniProt P04637, Y220C); assay: Luciferase Reporter Assay (Luc), p53 response element, NClH1299 cells with inducible p53 Y220C; format: cell-based; settings: 6 hour; for AC50: read-out: Luc P53 Y220C AC50
Procedure, shortened: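 Doxycycline (0.5 ug/mL, 24 h) induces the mutant before a 6-hour compound treatment. Reporter activity is then quantified by One-Glo luminescence.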

H1299 p53 R273H = assay: Cell Proliferation Assay (CellTiter-Glo, CTG), H1299 p53 R273H (NClH1299-inducible p53 R273H); format: cell-based; settings: Homo sapiens, NCI-H1299, 120 h, NClH1299-inducible p53 R273H cells, 5 days
Procedure, shortened: as §1

[3] = luciferase reporter, NClH1299 inducible p53 Y220C

Row | Compound | pIC50 (H1299 p53 Y220C; CellTiter-Glo) | ΔTm at 10 µM ([1]; p53 Y220C) | pKd ([2]; SPR, p53 Y220C) | pIC50 (NUGC3 p53 Y220C; CellTiter-Glo) | AC50 (p53 Y220C; [3]) | Emax (p53 Y220C; [3]) | pIC50 (H1299 p53 R273H; CellTiter-Glo) | pKd [2] | pIC50 (H1299 p53 Y220C) | ΔTm at 10 µM [1] | ΔTm at 100 µM ([1]; 100 uM compound) | pIC50 (NUGC3 p53 Y220C) | AC50 (p53 Y220C; NClH1299 cells with inducible p53 Y220C) | Emax (p53 Y220C; NClH1299 cells with inducible p53 Y220C, 10 uM tool compound as positive control) | pIC50 (H1299 p53 R273H)
1 | CNC(=O)c1ccc(OC)c(NCC#Cc2cc3c(N[C@@H]4CCNC[C@@H]4F)nccn3c2SC(F)(F)F)n1 [Example 340] | > 6.12 | ≥ 10 °C | > 8.00 | > 6.12 | < 750 nM | 80 to 90% | ≤ 5.00 | – | – | – | – | – | – | – | –
2 | COc1cc(S(C)(=O)=O)ccc1NCC#Cc1cc2c(N[C@@H]3CCN(C)C[C@@H]3F)cccn2c1SC(F)(F)F [Example 341] | > 6.12 | ≥ 10 °C | > 8.00 | > 6.12 | < 750 nM | > 90% | 5.10 to 5.30 | – | – | – | – | – | – | – | –
3 | COc1cc(S(C)(=O)=O)ccc1NCC#Cc1cc2c(N[C@@H]3CCN(C)C[C@@H]3F)nccn2c1SC(F)(F)F [Example 342] | > 6.12 | ≥ 10 °C | – | > 6.12 | < 750 nM | > 90% | 5.10 to 5.30 | > 8.00 | – | – | – | – | – | – | –
4 | CNC(=O)c1ccc(OC)c(NCC#Cc2cc3c(N[C@@H]4CCN(C)C[C@@H]4F)cccn3c2SC(F)F)c1 [Example 343] | > 6.12 | ≥ 10 °C | > 8.00 | > 6.12 | < 750 nM | > 90% | ≤ 5.00 | – | – | – | – | – | – | – | –
5 | COc1cc(S(C)(=O)=O)ccc1NCC#Cc1cc2c(N[C@@H]3CCN(C)C[C@@H]3F)cccn2c1SC(F)F [Example 344] | > 6.12 | ≥ 10 °C | > 8.00 | > 6.12 | < 750 nM | > 90% | 5.10 to 5.30 | – | – | – | – | – | – | – | –
6 | CNC(=O)c1ccc(OC)c(NCC#Cc2cc3c(N[C@@H]4CCN(C)C[C@@H]4F)cccn3c2SC(F)(F)F)n1 [Example 345] | > 6.12 | ≥ 10 °C | > 8.00 | > 6.12 | < 750 nM | 80 to 90% | 5.00 to 5.10 | – | – | – | – | – | – | – | –
7 | COc1cc(P(C)(C)=O)ccc1NCC#Cc1cc2c(N[C@@H]3CCN(C)C[C@@H]3F)cccn2c1SC(F)(F)F [Example 346] | > 6.12 | ≥ 10 °C | > 8.00 | > 6.12 | < 750 nM | > 90% | 5.00 to 5.10 | – | – | – | – | – | – | – | –
8 | CNC(=O)c1cc(F)c(OC)c(NCC#Cc2nc3c(N[C@@H]4CCN(C)C[C@@H]4F)nccn3c2SC(F)(F)F)c1 [Example 347] | > 6.12 | ≥ 10 °C | > 8.00 | > 6.12 | < 750 nM | > 90% | ≤ 5.00 | – | – | – | – | – | – | – | –
9 | CNC(=O)c1ccc(C(=O)NC)c(NCC#Cc2cc3c(N[C@@H]4CCN(C)C[C@@H]4F)nccn3c2SC(F)(F)F)c1 [Example 348] | > 6.12 | ≥ 10 °C | > 8.00 | > 6.12 | < 750 nM | > 90% | ≤ 5.00 | – | – | – | – | – | – | – | –
10 | COc1cc(P(C)(C)=O)ccc1NCC#Cc1cc2c(N[C@@H]3CCN(C)C[C@@H]3F)cccn2c1SC(F)F [Example 349] | > 6.12 | ≥ 10 °C | > 8.00 | > 6.12 | < 750 nM | 80 to 90% | ≤ 5.00 | – | – | – | – | – | – | – | –
11 | CNC(=O)c1ccc(NCC#Cc2cc3c(N[C@@H]4CCN(C5COC5)C[C@@H]4F)nccn3c2SC(F)(F)F)c(OC)c1 [Example 350] | > 6.12 | ≥ 10 °C | – | > 6.12 | < 750 nM | > 90% | ≤ 5.00 | > 8.00 | – | – | – | – | – | – | –
12 | CNC(=O)c1ccc(OC)c(NCC#Cc2cc3c(N[C@@H]4CCN(C5COC5)C[C@@H]4F)nccn3c2SC(F)(F)F)c1 [Example 351] | > 6.12 | ≥ 10 °C | > 8.00 | > 6.12 | < 750 nM | > 90% | ≤ 5.00 | – | – | – | – | – | – | – | –
13 | CNC(=O)CN1CC[C@@H](Nc2nccn3c(SC(F)(F)F)c(C#CCNc4cc(C(=O)NC)ccc4OC)cc23)[C@@H](F)C1 [Example 352] | > 6.12 | ≥ 10 °C | > 8.00 | > 6.12 | < 750 nM | > 90% | ≤ 5.00 | – | – | – | – | – | – | – | –
14 | CNC(=O)c1ccc(OC)c(NCC#Cc2cc3c(N[C@@H]4CCN(CC#N)C[C@@H]4F)nccn3c2SC(F)(F)F)c1 [Example 353] | > 6.12 | ≥ 10 °C | > 8.00 | > 6.12 | < 750 nM | > 90% | ≤ 5.00 | – | – | – | – | – | – | – | –
15 | CNC(=O)c1ccc(NCC#Cc2cc3c(N[C@@H]4CCNC[C@@H]4F)cccn3c2SC(F)(F)F)c(OC)c1 [Example 354] | > 6.12 | ≥ 10 °C | > 8.00 | > 6.12 | < 750 nM | > 90% | 5.10 to 5.30 | – | – | – | – | – | – | – | –
16 | CNC(=O)c1ccc(NCC#Cc2cc3c(N[C@@H]4CCN(C)C[C@@H]4F)cccn3c2SC(F)(F)F)cc1 [Example 357] | > 6.12 | ≥ 10 °C | > 8.00 | > 6.12 | < 750 nM | > 90% | 5.10 to 5.30 | – | – | – | – | – | – | – | –
17 | COc1ccc(C(=O)NC[C@H](C)O)cc1NCC#Cc1cc2c(N[C@@H]3CCN(C)C[C@@H]3F)nccn2c1SC(F)(F)F [Example 358] | > 6.12 | ≥ 10 °C | > 8.00 | > 6.12 | < 750 nM | > 90% | ≤ 5.00 | – | – | – | – | – | – | – | –
18 | COc1ccc(C(=O)NC[C@@H](C)O)cc1NCC#Cc1cc2c(N[C@@H]3CCN(C)C[C@@H]3F)nccn2c1SC(F)(F)F [Example 359] | > 6.12 | ≥ 10 °C | > 8.00 | > 6.12 | < 750 nM | > 90% | ≤ 5.00 | – | – | – | – | – | – | – | –
19 | CN1CC[C@@H](Nc2cccn3c(SC(F)(F)F)c(-c4noc(CNC(=O)C5CC5)n4)nc23)[C@@H](F)C1 [Example 458] | – | – | 7.00 to 8.00 | – | – | – | – | – | < 5.52 | 5 to 10 °C | 5 to 10 °C | < 5.52 | > 3000 nM | < 70% | ≤ 5.00
